Measured values from article PMC6001238, “Iterative Chemical Engineering of Vancomycin Leads to Novel Vancomycin Analogs With a High in Vitro Therapeutic Index” (Frontiers in Microbiology, 2018).
Converted amounts (≈) assume the structure as drawn.

How the values were obtained:
[1] = test system: E. faecalis VRE 37; experiment: MIC, broth microdilution, vancomycin-resistant E. faecalis VRE 37 (VanA); assay type: cell-based, Enterococcus faecalis; conditions: for MIC: Enterococcus faecalis VRE 37 (vancomycin-resistant), read-out: MIC; for MIC-fold improvement vs. vancomycin: VRE 37, ratio of MIC of vancomycin and MIC of analogue
In short: (§1)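 Following CLSI antimicrobial susceptibility standards, organisms were tested by broth microdilution. Controls comprised ultrapure water plus broth left uninoculated. For a single condition, 10 μM vancomycin (final) accompanied the analog or control agent.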

[2] = test system: E. faecalis VRE 29; experiment: MIC, broth microdilution, vancomycin-resistant E. faecalis VRE 29 (VanA); assay type: cell-based, Enterococcus faecalis; conditions: for MIC: Enterococcus faecalis VRE 29 (vancomycin-resistant), read-out: MIC; for MIC-fold improvement vs. vancomycin: VRE 29, ratio of MIC of vancomycin and MIC of analogue
In short: as §1

[3] = test system: Murine leukemia (L1210) cells; experiment: Cytostatic activity, L1210 cell proliferation; assay type: cell-based; conditions: mean ± SD of three experiments; highest concentration tested 250 µM; 2 days; read-out: Toxicity (IC50) L1210
In short: (§2)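 Readout: Coulter cell number after drug exposure at 37°C. Durations differ by line (L1210 2 days; CEM 3 days; HeLa 4 days). Stock suspension 300,000–500,000 cells/mL, diluted by mixing with compound. Endpoint: IC50 vs negative control.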

[4] = test system: S. aureus VISA/HIP5827; experiment: MIC, broth microdilution, vancomycin-intermediate S. aureus VISA HIP5827; assay type: cell-based, Staphylococcus aureus; conditions: for MIC: Staphylococcus aureus VISA/HIP5827, read-out: MIC; for MIC-fold improvement vs. vancomycin: VISA/HIP5827, ratio of MIC of vancomycin and MIC of analogue
In short: as §1

[5] = test system: MRSA KS2; experiment: MIC, broth microdilution, MRSA KS2; assay type: cell-based, Staphylococcus aureus; conditions: for MIC-fold improvement vs. vancomycin: MRSA KS2, ratio of MIC of vancomycin and MIC of analogue; for MIC: Staphylococcus aureus MRSA KS2, read-out: MIC
In short: as §1

[6] = test system: human cervix carcinoma (HeLa) cells; experiment: Cytostatic activity, HeLa cell proliferation; assay type: cell-based; conditions: mean ± SD of three experiments; highest concentration tested 250 µM; 4 days; read-out: Toxicity (IC50) HeLa
In short: as §2

[7] = test system: MRSA KS1; experiment: MIC, broth microdilution, MRSA KS1; assay type: cell-based, Staphylococcus aureus; conditions: for MIC-fold improvement vs. vancomycin: MRSA KS1, ratio of MIC of vancomycin and MIC of analogue; for MIC: Staphylococcus aureus MRSA KS1, read-out: MIC
In short: as §1

[8] = test system: MRSA KS6; experiment: MIC, broth microdilution, MRSA KS6; assay type: cell-based, Staphylococcus aureus; conditions: for MIC-fold improvement vs. vancomycin: MRSA KS6, ratio of MIC of vancomycin and MIC of analogue; for MIC: Staphylococcus aureus MRSA KS6, read-out: MIC
In short: as §1

[9] = test system: human T-lymphocyte (CEM) cells; experiment: Cytostatic activity, CEM cell proliferation; assay type: cell-based; conditions: mean ± SD of three experiments; highest concentration tested 250 µM; 3 days; read-out: Toxicity (IC50) CEM
In short: as §2

[10] = test system: E. faecalis VSE 1; experiment: MIC, broth microdilution, vancomycin-sensitive E. faecalis (VSE 1); assay type: cell-based, Enterococcus faecalis; conditions: for MIC: Enterococcus faecalis VSE 1 (vancomycin-sensitive), read-out: MIC; for MIC-fold improvement vs. vancomycin: VSE 1, ratio of MIC of vancomycin and MIC of analogue
In short: as §1

[11] = test system: E. faecalis VRE 53; experiment: MIC, broth microdilution, vancomycin-resistant E. faecalis VRE 53 (VanA); assay type: cell-based, Enterococcus faecalis; conditions: for MIC: Enterococcus faecalis VRE 53 (vancomycin-resistant), read-out: MIC; for MIC-fold improvement vs. vancomycin: VRE 53, ratio of MIC of vancomycin and MIC of analogue
In short: as §1

[12] = test system: MRSA KS89; experiment: MIC, broth microdilution, MRSA KS89; assay type: cell-based, Staphylococcus aureus; conditions: for MIC-fold improvement vs. vancomycin: MRSA KS8, ratio of MIC of vancomycin and MIC of analogue; for MIC: Staphylococcus aureus MRSA KS8, read-out: MIC
In short: as §1

[13] = test system: L1210, CEM and HeLa cell lines; experiment: Cytostatic activity, average or summary over L1210, CEM and HeLa; assay type: cell-based; conditions: average of L1210, CEM and HeLa; read-out: Toxicity (IC50) Average
In short: as §2

[14] = test system: S. aureus VSSA (ATCC 6538); experiment: MIC, broth microdilution, vancomycin-sensitive S. aureus (VSSA/MSSA, ATCC 6538); assay type: cell-based, Staphylococcus aureus; conditions: for MIC: Staphylococcus aureus VSSA, read-out: MIC; for MIC-fold improvement vs. vancomycin: VSSA, ratio of MIC of vancomycin and MIC of analogue
In short: as §1

[15] = test system: S. aureus VRSA; experiment: MIC, broth microdilution, vancomycin-resistant S. aureus (VRSA); assay type: cell-based, Staphylococcus aureus; conditions: for MIC: Staphylococcus aureus VRSA, read-out: MIC; for MIC-fold improvement vs. vancomycin: VRSA, ratio of MIC of vancomycin and MIC of analogue
In short: as §1

[16] = test system: E. faecalis VRE 6; experiment: MIC, broth microdilution, vancomycin-resistant E. faecalis VRE 6 (VanA); assay type: cell-based, Enterococcus faecalis; conditions: for MIC: Enterococcus faecalis VRE 6 (vancomycin-resistant), read-out: MIC; for MIC-fold improvement vs. vancomycin: VRE 6, ratio of MIC of vancomycin and MIC of analogue
In short: as §1

MIC [1] [µM] | MIC-fold improvement vs. vancomycin [1] | MIC [2] [µM] | MIC-fold improvement vs. vancomycin [2] | MIC [4] [µM] | MIC-fold improvement vs. vancomycin [4] | MIC-fold improvement vs. vancomycin [5] | MIC [5] [µM] | MIC-fold improvement vs. vancomycin [7] | MIC [7] [µM] | MIC-fold improvement vs. vancomycin [8] | MIC [8] [µM] | MIC [10] [µM] | MIC-fold improvement vs. vancomycin [10] | MIC [11] [µM] | MIC-fold improvement vs. vancomycin [11] | MIC-fold improvement vs. vancomycin [12] | Compound | IC50 [3] [µM] | IC50 [6] [µM] | IC50 [9] [µM] | also measured
6.25 (≈ 11 µg/mL) | 64 | 6.25 (≈ 11 µg/mL) | 64 | 0.78 (≈ 1.37 µg/mL) | 8 | 4 | 0.20 (≈ 0.351 µg/mL) | 0.5 | 1.56 (≈ 2.74 µg/mL) | 4 | 0.20 (≈ 0.351 µg/mL) | 0.78 (≈ 1.37 µg/mL) | 2 | 6.25 (≈ 11 µg/mL) | 64 | 4 | CNC(CC(C)C)C(=O)NC1C(=O)NC(CC(N)=O)C(=O)NC2C(=O)NC3C(=O)NC(C(=O)NC(C(=O)NCC(=O)Nc4ccc(-c5cn(-c6ccc(OC)cc6)nn5)cc4)c4cc(O)cc(O)c4-c4cc3ccc4O)C(O)c3ccc(c(Cl)c3)Oc3cc2cc(c3OC2OC(CO)C(O)C(O)C2OC2CC(C)(N)C(O)C(C)O2)Oc2ccc(cc2Cl)C1O (centres unmarked) [Vanc-72] | 173 ± 106 | 25 ± 10 | 17 ± 1 | MIC [12]: 0.20 µM (≈ 0.351 µg/mL); IC50 [13]: 72 µM; MIC [14]: 0.39 µM (≈ 0.684 µg/mL); MIC-fold improvement vs. vancomycin [14]: 2; MIC [15]: 0.78 µM (≈ 1.37 µg/mL); MIC-fold improvement vs. vancomycin [15]: 128; MIC [16]: 3.13 µM (≈ 5.49 µg/mL); MIC-fold improvement vs. vancomycin [16]: 64
25 (≈ 41.6 µg/mL) | 16 | 12.5 (≈ 20.8 µg/mL) | 32 | 1.56 (≈ 2.6 µg/mL) | 4 | 2 | 0.39 (≈ 0.65 µg/mL) | 1 | 0.78 (≈ 1.3 µg/mL) | 2 | 0.39 (≈ 0.65 µg/mL) | 0.78 (≈ 1.3 µg/mL) | 2 | 25 (≈ 41.6 µg/mL) | 16 | 2 | CNC(CC(C)C)C(=O)NC1C(=O)NC(CC(N)=O)C(=O)NC2C(=O)NC3C(=O)NC(C(=O)NC(C(=O)NCCCNC(=O)c4ccc(C(C)(C)C)cc4)c4cc(O)cc(O)c4-c4cc3ccc4O)C(O)c3ccc(c(Cl)c3)Oc3cc2cc(c3OC2OC(CO)C(O)C(O)C2OC2CC(C)(N)C(O)C(C)O2)Oc2ccc(cc2Cl)C1O (centres unmarked) [Vanc-73] | 108 ± 42 | 81 ± 6 | 130 ± 6 | MIC [12]: 0.39 µM (≈ 0.65 µg/mL); IC50 [13]: 106 µM; MIC [14]: 0.78 µM (≈ 1.3 µg/mL); MIC-fold improvement vs. vancomycin [14]: 1; MIC [15]: 6.25 µM (≈ 10.4 µg/mL); MIC-fold improvement vs. vancomycin [15]: 16; MIC [16]: 6.25 µM (≈ 10.4 µg/mL); MIC-fold improvement vs. vancomycin [16]: 32
